Measurements taken from patent US12162858B2, “Quinoline derivatives as inhibitors of AXL/MER RTK and CSF1R” (QURIENT CO., LTD., priority 2018, dated 2024).

Legend:
Format in all cases: cell-based
[1] = target: CSF1R (Ba/F3 cells) (Homo sapiens, UniProt P07333); assay: BaF3 viability assay, CSF1R-dependent cells; conditions: read-out: Cellular CSF1R activity by Ba/F3 assay (IC50)
From the text: (§1) In this system, IL-3-dependent Ba/F3 cells are modified to express an activated recombinant kinase (in the present case Axl, Mer and CSF1R). Following removal of IL-3, the modified cells are dependent on the activity of the recombinant kinase for survival and proliferation. Inhibition of such kinase(s) through test compounds reduces survival and proliferation of the cells.
(§2) Cell lines were maintained in growth media (GM) consisting of RPMI 1640 supplemented with 10% FBS. Cells in logarithmic-phase growth were harvested and 5,000 cells were distributed into each well of a 384-well plate in 50 μl GM. Parental cells (or experimental assays where specified) were further supplemented with 2 ng/ml IL-3 to support cell growth and survival. Fifty nanoliters of the indicated reference standard or experimental compound were added to appropriate wells (in duplicate) and the cells were cultured for 48 h at 37° C./5% CO2. Viability was determined by adding 10 μl Cell Titer Glo and measuring luminescence, which is reported as relative light units (RLU) measured in counts per second. The following calculations and formulas are used for data analysis using GraphPad Prism software: The curve fitting was made using the Dose response curves-Inhibition.

[2] = target: T1, Mer (Ba/F3 cells) (Homo sapiens, UniProt Q12866); assay: BaF3 viability assay, Mer-dependent cells; conditions: read-out: Cellular Mer activity by Ba/F3 assay (IC50)
T1 sequence (Q12866 1-999): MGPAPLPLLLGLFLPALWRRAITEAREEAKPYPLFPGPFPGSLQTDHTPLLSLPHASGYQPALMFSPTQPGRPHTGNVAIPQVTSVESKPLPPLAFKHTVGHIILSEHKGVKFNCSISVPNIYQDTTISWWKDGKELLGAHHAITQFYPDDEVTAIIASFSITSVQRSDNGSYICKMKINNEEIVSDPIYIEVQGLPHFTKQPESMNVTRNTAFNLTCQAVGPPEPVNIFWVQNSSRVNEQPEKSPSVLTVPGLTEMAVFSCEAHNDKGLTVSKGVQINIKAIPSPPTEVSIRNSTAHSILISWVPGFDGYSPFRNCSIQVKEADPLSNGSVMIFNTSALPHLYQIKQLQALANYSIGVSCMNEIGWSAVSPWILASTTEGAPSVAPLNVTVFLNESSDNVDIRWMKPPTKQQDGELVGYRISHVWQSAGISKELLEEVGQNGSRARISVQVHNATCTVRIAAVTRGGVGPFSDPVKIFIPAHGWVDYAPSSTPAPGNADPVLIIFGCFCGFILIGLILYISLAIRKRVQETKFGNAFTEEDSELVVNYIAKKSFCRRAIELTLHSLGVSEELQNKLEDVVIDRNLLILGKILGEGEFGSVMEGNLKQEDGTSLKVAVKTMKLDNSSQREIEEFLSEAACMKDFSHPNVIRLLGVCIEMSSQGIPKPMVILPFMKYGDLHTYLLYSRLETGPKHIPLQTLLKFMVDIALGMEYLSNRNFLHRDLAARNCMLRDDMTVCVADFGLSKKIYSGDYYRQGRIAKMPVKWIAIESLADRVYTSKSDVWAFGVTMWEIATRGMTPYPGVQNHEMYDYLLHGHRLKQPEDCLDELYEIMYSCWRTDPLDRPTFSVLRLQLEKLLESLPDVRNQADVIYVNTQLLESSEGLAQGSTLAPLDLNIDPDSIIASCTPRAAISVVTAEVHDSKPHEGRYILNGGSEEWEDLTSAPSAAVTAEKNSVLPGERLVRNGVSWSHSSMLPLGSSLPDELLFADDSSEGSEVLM
From the text: as §1, §2

[3] = target: T2, Axl (Ba/F3 cells) (Homo sapiens, UniProt P30530); assay: BaF3 viability assay, Axl-dependent cells; conditions: read-out: Cellular Axl activity by Ba/F3 assay (IC50)
T2 sequence (P30530 1-894): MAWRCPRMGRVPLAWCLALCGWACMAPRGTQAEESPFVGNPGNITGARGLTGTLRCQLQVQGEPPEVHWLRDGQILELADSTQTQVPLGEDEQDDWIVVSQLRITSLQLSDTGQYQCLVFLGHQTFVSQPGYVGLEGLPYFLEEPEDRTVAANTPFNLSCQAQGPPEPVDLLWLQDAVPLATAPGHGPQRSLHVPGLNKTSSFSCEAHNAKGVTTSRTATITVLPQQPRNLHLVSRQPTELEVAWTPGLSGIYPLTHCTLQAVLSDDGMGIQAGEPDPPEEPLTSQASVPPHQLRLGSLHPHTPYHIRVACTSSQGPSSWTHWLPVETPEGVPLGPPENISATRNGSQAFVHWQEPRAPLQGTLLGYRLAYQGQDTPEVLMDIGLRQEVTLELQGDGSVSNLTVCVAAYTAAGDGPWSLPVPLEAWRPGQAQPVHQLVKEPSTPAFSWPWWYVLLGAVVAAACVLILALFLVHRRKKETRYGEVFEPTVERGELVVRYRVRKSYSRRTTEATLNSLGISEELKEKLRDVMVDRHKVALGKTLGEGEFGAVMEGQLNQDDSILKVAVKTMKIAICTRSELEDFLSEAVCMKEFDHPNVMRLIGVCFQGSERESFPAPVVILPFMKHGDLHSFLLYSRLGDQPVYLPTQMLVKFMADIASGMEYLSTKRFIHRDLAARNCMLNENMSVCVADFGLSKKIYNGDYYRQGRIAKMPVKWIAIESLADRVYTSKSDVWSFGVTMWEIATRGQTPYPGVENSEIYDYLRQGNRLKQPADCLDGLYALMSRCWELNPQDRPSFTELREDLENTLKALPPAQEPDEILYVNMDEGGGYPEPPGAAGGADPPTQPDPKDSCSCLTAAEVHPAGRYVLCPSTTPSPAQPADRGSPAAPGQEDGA
From the text: as §1, §2

CSF1R (Ba/F3 cells), sequence (P07333 whole entry, change not shown): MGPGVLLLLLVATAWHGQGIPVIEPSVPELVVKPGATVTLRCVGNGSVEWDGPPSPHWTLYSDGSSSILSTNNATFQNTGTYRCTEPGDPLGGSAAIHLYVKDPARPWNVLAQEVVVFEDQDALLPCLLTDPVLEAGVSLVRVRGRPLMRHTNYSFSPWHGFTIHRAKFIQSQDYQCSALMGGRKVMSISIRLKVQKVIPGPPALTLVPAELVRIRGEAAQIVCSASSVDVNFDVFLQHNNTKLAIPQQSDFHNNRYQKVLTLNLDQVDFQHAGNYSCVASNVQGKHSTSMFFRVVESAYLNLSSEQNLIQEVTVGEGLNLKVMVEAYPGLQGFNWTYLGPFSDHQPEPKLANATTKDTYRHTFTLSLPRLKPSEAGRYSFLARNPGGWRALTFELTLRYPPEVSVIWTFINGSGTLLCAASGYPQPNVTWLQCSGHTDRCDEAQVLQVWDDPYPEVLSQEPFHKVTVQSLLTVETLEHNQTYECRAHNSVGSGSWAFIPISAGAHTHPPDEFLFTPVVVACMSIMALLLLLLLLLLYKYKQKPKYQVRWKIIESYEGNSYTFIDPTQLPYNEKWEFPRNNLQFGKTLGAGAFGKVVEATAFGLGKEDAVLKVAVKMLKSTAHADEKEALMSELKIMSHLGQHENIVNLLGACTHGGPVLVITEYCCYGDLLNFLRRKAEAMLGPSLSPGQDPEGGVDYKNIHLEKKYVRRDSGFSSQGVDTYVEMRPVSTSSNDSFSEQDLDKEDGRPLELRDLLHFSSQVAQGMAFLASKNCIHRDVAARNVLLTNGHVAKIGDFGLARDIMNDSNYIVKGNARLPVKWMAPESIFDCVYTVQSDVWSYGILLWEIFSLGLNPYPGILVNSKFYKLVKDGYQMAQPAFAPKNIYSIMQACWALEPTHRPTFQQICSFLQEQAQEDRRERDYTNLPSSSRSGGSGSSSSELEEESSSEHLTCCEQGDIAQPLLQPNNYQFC

Compound | GI50 [1] | GI50 [2] | GI50 [3]
CCCn1cc(OC(C)C)c(C(=O)Nc2ccc(Oc3ccnc4cc(OC)c(OC(F)(F)F)cc34)c(F)c2)n1 [Compound 35] | 1000 to 10000 nM | ≥ 10000 nM | ≥ 10000 nM
COc1cc2nccc(Oc3ccc(NC(=O)c4nn(CC(C)O)cc4OCC(F)(F)F)nc3)c2cc1OC (stereo not drawn) [Compound 17] | < 1000 nM | < 1000 nM | < 1000 nM
COc1cc2nccc(Oc3ccc(NC(=O)c4nn(CCCO)cc4OCC(F)(F)F)nc3)c2cc1OC [Compound 18] | < 1000 nM | < 1000 nM | < 1000 nM
COc1cc2nccc(Oc3ccc(NC(=O)c4nn(C[C@@H](C)O)cc4OCC(F)(F)F)nc3)c2cc1OC [Compound 29] | < 1000 nM | < 1000 nM | < 1000 nM
CCCn1cc(OCCC(O)CO)c(C(=O)Nc2ccc(Oc3ccnc4cc(OC)c(OC)cc34)cn2)n1 (stereo not drawn) [Compound 15] | 1000 to 10000 nM | 1000 to 10000 nM | < 1000 nM
COc1cc2nccc(Oc3ccc(NC(=O)c4nn(C[C@H](C)O)cc4OCC(F)(F)F)nc3)c2cc1OC [Compound 30] | < 1000 nM | < 1000 nM | < 1000 nM
